# Source: the supplement of paper PMC5662764
# ± gives the standard deviation of the averaged measurements.
# Tests used:
# Assay in all cases: normalised growth rate inhibition (GR value) relative to DMSO control (GR (1 = untreated growth, 0 = cytostasis, <0 = cytotoxic)); higher = less growth inhibition
# Details in all cases: 72 h
# MCF7 = system: MCF7
# Method: (§1)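 Breast cancer cell lines (BT-20, Hs 578T, MCF 10A, MCF7, MDA-MB-231, SK-BR-3) were plated in 384-well plates and treated 24 h later with drugs at six concentrations (0.04-10 µM). Viable cells were counted by Hoechst/dead-cell-stain imaging at 0 and 72 h. Counts were normalised to DMSO controls on the same plate to give the relative cell count and the growth-rate inhibition (GR) value; technical plate triplicates were averaged for each biological replicate.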
# MCF10A = system: MCF10A
# Method: as §1
# HS578T = system: HS578T
# Method: as §1
# SKBR3 = system: SKBR3
# Method: as §1
# MDAMB231 = system: MDAMB231
# Method: as §1
# BT20 = system: BT20
# Method: as §1
Structure (SMILES),normalised growth rate inhibition (MCF7; 0.04 µM),normalised growth rate inhibition (MCF7; 0.12 µM),normalised growth rate inhibition (MCF7; 0.37 µM),normalised growth rate inhibition (MCF7; 1.11 µM),normalised growth rate inhibition (MCF7; 3.33 µM),normalised growth rate inhibition (MCF7; 10 µM),normalised growth rate inhibition (MCF10A; 0.04 µM),normalised growth rate inhibition (MCF10A; 0.12 µM),normalised growth rate inhibition (MCF10A; 0.37 µM),normalised growth rate inhibition (MCF10A; 1.11 µM),normalised growth rate inhibition (MCF10A; 3.33 µM),normalised growth rate inhibition (MCF10A; 10 µM),normalised growth rate inhibition (HS578T; 0.04 µM),normalised growth rate inhibition (HS578T; 0.12 µM),normalised growth rate inhibition (HS578T; 0.37 µM),normalised growth rate inhibition (HS578T; 1.11 µM),normalised growth rate inhibition (HS578T; 3.33 µM),normalised growth rate inhibition (HS578T; 10 µM),normalised growth rate inhibition (SKBR3; 0.04 µM),normalised growth rate inhibition (SKBR3; 0.12 µM),normalised growth rate inhibition (SKBR3; 0.37 µM),normalised growth rate inhibition (SKBR3; 1.11 µM),normalised growth rate inhibition (SKBR3; 3.33 µM),normalised growth rate inhibition (SKBR3; 10 µM),normalised growth rate inhibition (MDAMB231; 0.04 µM),normalised growth rate inhibition (MDAMB231; 0.12 µM),normalised growth rate inhibition (MDAMB231; 0.37 µM),normalised growth rate inhibition (MDAMB231; 1.11 µM),normalised growth rate inhibition (MDAMB231; 3.33 µM),normalised growth rate inhibition (MDAMB231; 10 µM),normalised growth rate inhibition (BT20; 0.04 µM),normalised growth rate inhibition (BT20; 0.12 µM),normalised growth rate inhibition (BT20; 0.37 µM),normalised growth rate inhibition (BT20; 1.11 µM),normalised growth rate inhibition (BT20; 3.33 µM),normalised growth rate inhibition (BT20; 10 µM)
Cc1nc(Nc2ncc(C(=O)Nc3c(C)cccc3Cl)s2)cc(N2CCN(CCO)CC2)n1 [dasatinib],0.342 ± 0.32,0.0795 ± 0.2,-0.0261 ± 0.17,-0.0357 ± 0.15,-0.0394 ± 0.16,-0.0825 ± 0.16,0.621 ± 0.24,0.391 ± 0.23,0.196 ± 0.14,0.0869 ± 0.091,-0.0296 ± 0.08,-0.138 ± 0.061,0.394 ± 0.28,0.17 ± 0.22,0.0194 ± 0.17,-0.0213 ± 0.16,-0.0565 ± 0.17,-0.109 ± 0.15,0.998 ± 0.06,0.937 ± 0.08,0.942 ± 0.058,0.766 ± 0.064,0.398 ± 0.15,-0.166 ± 0.22,0.159 ± 0.29,-0.107 ± 0.1,-0.204 ± 0.032,-0.233 ± 0.054,-0.239 ± 0.061,-0.259 ± 0.12,0.622 ± 0.27,0.364 ± 0.2,0.0964 ± 0.081,0.0125 ± 0.077,-0.085 ± 0.094,-0.163 ± 0.1
COc1cc(N2CCC(C(N)=O)CC2)ccc1Nc1nc(N)c(Cl)c(Nc2ccccc2S(=O)(=O)C(C)C)n1 [HG-5-88-01],0.635 ± 0.082,0.602 ± 0.04,0.493 ± 0.081,0.364 ± 0.071,0.208 ± 0.11,-0.0672 ± 0.054,0.933 ± 0.075,0.879 ± 0.09,0.766 ± 0.14,0.709 ± 0.16,0.627 ± 0.2,0.452 ± 0.11,0.942 ± 0.016,0.933 ± 0.04,0.885 ± 0.015,0.8637 ± 0.0081,0.839 ± 0.022,0.664 ± 0.034,0.548 ± 0.13,0.691 ± 0.1,0.678 ± 0.073,0.699 ± 0.08,0.641 ± 0.17,0.133 ± 0.15,0.794 ± 0.12,0.861 ± 0.12,0.791 ± 0.11,0.796 ± 0.14,0.783 ± 0.17,0.451 ± 0.089,0.747 ± 0.087,0.921 ± 0.066,0.937 ± 0.039,0.887 ± 0.022,0.846 ± 0.048,0.404 ± 0.013
C=CC(=O)Nc1cc(-n2c(=O)ccc3cnc4ccc(-c5cn[nH]c5)cc4c32)ccc1C [QL-X-138],0.496 ± 0.22,0.41 ± 0.2,0.31 ± 0.098,0.205 ± 0.094,0.145 ± 0.061,-0.0977 ± 0.021,1.01 ± 0.063,0.981 ± 0.074,0.887 ± 0.15,0.791 ± 0.19,0.505 ± 0.29,-0.112 ± 0.031,0.841 ± 0.034,0.76 ± 0.066,0.639 ± 0.024,0.501 ± 0.018,0.379 ± 0.061,-0.0527 ± 0.082,0.463 ± 0.16,0.413 ± 0.11,0.233 ± 0.13,0.163 ± 0.09,0.0588 ± 0.1,-0.231 ± 0.21,0.824 ± 0.13,0.834 ± 0.062,0.768 ± 0.059,0.672 ± 0.12,0.48 ± 0.13,-0.135 ± 0.11,0.727 ± 0.052,0.726 ± 0.046,0.631 ± 0.11,0.535 ± 0.17,0.381 ± 0.18,-0.222 ± 0.053
CC[C@H](CO)Nc1nc(NCc2ccccc2)c2ncn(C(C)C)c2n1 [roscovitine],1.07 ± 0.066,1.02 ± 0.024,0.922 ± 0.048,0.818 ± 0.068,0.717 ± 0.087,-0.102 ± 0.15,0.9943 ± 0.0068,0.9805 ± 0.0066,0.9621 ± 0.0088,0.955 ± 0.014,0.926 ± 0.025,0.439 ± 0.19,1.009 ± 0.01,1.01 ± 0.016,0.975 ± 0.011,0.954 ± 0.034,0.95 ± 0.054,0.688 ± 0.062,1.04 ± 0.093,1.04 ± 0.045,0.979 ± 0.085,0.852 ± 0.043,0.677 ± 0.023,0.146 ± 0.18,1.03 ± 0.035,0.971 ± 0.03,0.926 ± 0.03,0.88 ± 0.033,0.811 ± 0.077,0.401 ± 0.068,1.022 ± 0.0042,0.9967 ± 0.0034,0.913 ± 0.029,0.844 ± 0.084,0.759 ± 0.062,0.197 ± 0.044
CCC(=O)N1CCN(c2ccc(-n3c(=O)ccc4cnc5ccc(-c6cnc7ccccc7c6)cc5c43)cc2C(F)(F)F)CC1 [torin-1],0.166 ± 0.044,0.119 ± 0.024,0.082 ± 0.038,0.0141 ± 0.045,-0.0224 ± 0.046,-0.068 ± 0.033,0.529 ± 0.13,0.304 ± 0.042,0.198 ± 0.017,0.161 ± 0.026,0.156 ± 0.006,0.0917 ± 0.027,0.267 ± 0.069,0.213 ± 0.075,0.163 ± 0.086,0.0994 ± 0.083,0.0438 ± 0.084,-0.093 ± 0.14,0.0209 ± 0.19,-0.0144 ± 0.18,-0.0642 ± 0.15,-0.11 ± 0.18,-0.161 ± 0.17,-0.218 ± 0.19,0.464 ± 0.038,0.339 ± 0.053,0.243 ± 0.073,0.178 ± 0.051,0.116 ± 0.055,-0.0316 ± 0.1,0.271 ± 0.076,0.11 ± 0.081,0.0128 ± 0.054,-0.0682 ± 0.033,-0.152 ± 0.025,-0.251 ± 0.026
CCOc1cc2ncc(C#N)c(Nc3ccc(F)c(Cl)c3)c2cc1NC(=O)/C=C/CN(C)C [pelitinib],1.06 ± 0.061,1.03 ± 0.12,0.935 ± 0.068,0.763 ± 0.14,0.33 ± 0.14,-0.164 ± 0.085,0.542 ± 0.25,0.267 ± 0.27,0.115 ± 0.042,0.129 ± 0.04,0.111 ± 0.042,-0.017 ± 0.046,0.9931 ± 0.0014,0.956 ± 0.052,0.841 ± 0.042,0.79 ± 0.035,0.569 ± 0.33,-0.122 ± 0.026,0.618 ± 0.21,0.332 ± 0.21,-0.0906 ± 0.18,-0.0946 ± 0.17,-0.052 ± 0.16,-0.227 ± 0.096,1.05 ± 0.042,1.03 ± 0.051,0.88 ± 0.043,0.75 ± 0.11,0.318 ± 0.18,-0.143 ± 0.073,0.966 ± 0.066,0.877 ± 0.099,0.7676 ± 0.006,0.697 ± 0.037,0.594 ± 0.13,-0.241 ± 0.14
CCn1c(-c2nonc2N)nc2c(C#CC(C)(C)O)ncc(OC[C@H]3CCCNC3)c21,0.6 ± 0.073,0.499 ± 0.17,0.42 ± 0.13,0.374 ± 0.096,0.361 ± 0.09,0.312 ± 0.09,0.989 ± 0.029,0.976 ± 0.024,0.937 ± 0.039,0.873 ± 0.034,0.872 ± 0.039,0.891 ± 0.042,0.846 ± 0.058,0.798 ± 0.075,0.726 ± 0.084,0.713 ± 0.11,0.717 ± 0.13,0.728 ± 0.12,0.578 ± 0.064,0.555 ± 0.035,0.556 ± 0.038,0.571 ± 0.039,0.62 ± 0.032,0.658 ± 0.065,0.86 ± 0.088,0.904 ± 0.021,0.906 ± 0.021,0.94 ± 0.026,1.01 ± 0.032,0.869 ± 0.08,0.8181 ± 0.0049,0.779 ± 0.062,0.636 ± 0.11,0.521 ± 0.12,0.453 ± 0.062,0.371 ± 0.047
